Assay results published in the supplement of paper PMC10307832.

Tests used:
Test in all cases: relative viability (nuclei count vs DMSO), 5 days (fraction); higher = more cells survive
[1] = compound: COC1=CC=C(C=C1)CN2C=CC3=C2C=C(C=C3)C(=O)NO + O=C(c1cc(Cc2n[nH]c(=O)c3ccccc23)ccc1F)N1CCN(C(=O)C2CC2)CC1 [Olaparib] (partner 8 µM)
How it was run: (§1)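 Relative viability is defined as nuclei in treated wells over nuclei in vehicle wells. Duplicate plates were run and medians reported. Lung cancer cell lines in 1536-well plates were dosed by pin tool one day after seeding, with one drug or with a fixed anchor-drug dose plus five library-drug doses (not always all listed) in √10 steps, and nuclei were counted after 5 days.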

[2] = compound: COC1=CC=C(C=C1)CN2C=CC3=C2C=C(C=C3)C(=O)NO + CS(=O)(=O)CCNCc1ccc(-c2ccc3ncnc(Nc4ccc(OCc5cccc(F)c5)c(Cl)c4)c3c2)o1 [Lapatinib] (partner 2 µM)
How it was run: as §1

[3] = compound: COC1=CC=C(C=C1)CN2C=CC3=C2C=C(C=C3)C(=O)NO + Cc1cc(Nc2cc(N3CCN(C)CC3)nc(Sc3ccc(NC(=O)C4CC4)cc3)n2)n[nH]1 [Tozasertib] (partner 0.1 µM)
How it was run: as §1

[4] = compound: COC1=CC=C(C=C1)CN2C=CC3=C2C=C(C=C3)C(=O)NO + CC(C)C[C@H](NC(=O)[C@H](Cc1ccccc1)NC(=O)c1cnccn1)B(O)O [Bortezomib] (partner 0.002 µM)
How it was run: as §1

Cell Line | relative viability ([1]; first compound 0.08 µM) | relative viability ([1]; first compound 0.253 µM) | relative viability ([1]; first compound 0.8 µM) | relative viability ([1]; first compound 2.53 µM) | relative viability ([1]; first compound 8 µM) | relative viability ([2]; first compound 0.08 µM) | relative viability ([2]; first compound 0.253 µM) | relative viability ([2]; first compound 0.8 µM) | relative viability ([2]; first compound 2.53 µM) | relative viability ([2]; first compound 8 µM) | relative viability ([3]; first compound 0.08 µM) | relative viability ([3]; first compound 0.253 µM) | relative viability ([3]; first compound 0.8 µM) | relative viability ([3]; first compound 2.53 µM) | relative viability ([3]; first compound 8 µM) | relative viability ([4]; first compound 0.08 µM) | relative viability ([4]; first compound 0.253 µM) | relative viability ([4]; first compound 0.8 µM) | relative viability ([4]; first compound 2.53 µM) | relative viability ([4]; first compound 8 µM)
NCI-H1650 | 0.753 | 0.813 | 0.775 | 0.762 | 0.78 | 0.254 | 0.76 | 0.847 | 0.86 | 0.451 | 0.391 | 0.379 | 0.447 | 0.416 | 0.326 | 0.17 | 0.174 | 0.208 | 0.211 | 0.195
PC-3 [JPC-3] | 1.1 |  | 1.11 | 1.19 | 1.14 | 0.423 | 0.486 | 0.493 | 0.49 | 0.478 | 0.861 | 0.912 | 0.921 | 0.88 | 0.908 | 0.808 | 0.814 | 0.833 | 0.817 | 0.854
LOU-NH91 |  | 0.95 | 0.928 | 0.903 | 0.894 | 0.561 | 0.745 | 0.825 | 0.733 | 0.725 | 0.407 | 0.693 | 0.66 | 0.64 | 0.587 | 0.387 | 0.472 | 0.466 | 0.476 | 0.504
NCI-H838 | 0.622 | 0.843 | 0.796 | 0.735 | 0.696 |  | 1.01 | 0.98 | 1.03 | 0.873 |  | 0.267 | 0.293 | 0.274 | 0.267 |  | 0.99 | 0.899 | 0.885 | 0.719
NCI-H23 | 0.302 | 0.282 | 0.314 | 0.322 | 0.304 | 0.383 | 1.21 | 1.06 | 1.01 | 0.88 | 0.292 | 0.352 | 0.358 | 0.301 | 0.281 | 1.04 | 1.02 | 1.14 | 0.975 | 0.594
NCI-H2023 | 0.453 | 0.475 | 0.464 | 0.433 | 0.413 | 0.155 | 0.792 | 0.784 | 0.864 | 0.601 | 0.296 | 0.314 | 0.415 | 0.389 | 0.396 | 0.728 | 1.05 | 0.944 | 1.03 | 0.878
NCI-H1993 | 0.699 | 1.31 | 1.25 | 1.06 | 0.885 | 0.639 | 0.857 | 0.843 | 0.864 | 0.741 | 0.568 | 0.627 | 0.517 | 0.6 | 0.567 | 0.934 | 1.16 | 1.15 | 1.2 | 1.04
UMC-11 | 0.373 | 0.355 | 0.415 | 0.911 | 0.373 | 0.374 | 1.14 | 1.05 | 1.02 | 0.916 |  | 0.204 | 0.215 | 0.215 | 0.223 | 0.665 | 0.668 | 0.809 | 0.67 | 0.634
NCI-H1437 | 0.603 | 0.635 | 0.626 | 0.676 | 0.618 | 0.23 | 0.84 | 0.877 | 0.886 | 0.8 | 0.321 | 0.446 | 0.395 | 0.42 | 0.409 | 0.38 | 0.483 | 0.527 | 0.581 | 0.393
